From patent US20250287947A1, “BIOCIDES AND ADHESIVE BINDING THEREOF” (EBERHARD KARLS UNIVERSITÄT TÜBINGEN MEDIZINISCHE FAKULTÄT, priority 2022, published 2025)

What was measured:
[1] = system: β-galactosidase-expressing E. coli strain; assay: Wash resistance and biocidal activity of Py-C12 treated silk fabric (Example 17); format: cell-based; conditions: treated with 1% (w/v) free base; washed 10, 20 and 30 times with water 15 min; E. coli 3 days at 37° C.
Protocol: (§1) In a first step, 1% (w/v) Py-C12 free base in water was warmed to 50° C. to obtain a liquid solution. After incubation with the Py-C12 solution, the samples were cooled to room temperature upon which the liquid Py-C12 was converted into a solid phase and thus immobilized to the material. After drying, samples were washed with water at room temperature 10, 20, and 30 times for 15 minutes each time. Thereafter, all samples were inoculated with a β-galactosidase-expressing E. coli strain and then incubated for 3 days at 37° C.

[2] = system: Staphylococcus aureus; assay: Quantitative Suspension Test, modified DIN EN ISO 11930:2019 with organic load; format: cell-based; conditions: 0.01% (w/v) Py-C12, pH 7.0, organic load, incubation 1 day
Protocol: (§2) In order to evaluate the bactericidal and fungicidal efficacy of Py-C12, Quantitative Suspension Tests were carried out under dirty conditions according to modified DIN EN ISO 11930:2019 with organic load using incubation periods of one and three days, respectively. For this purpose, 5-N-carboxamido-2-pyrrolidone-N-n-dodecyl propane-1,3-diamine (Py-C12) solutions were adjusted to pH 7.0 with HCl and subsequently diluted to corresponding test concentrations.

[3] = system: Candida albicans; assay: as above; format: cell-based; conditions: 0.025% (w/v) Py-C12, pH 7.0, organic load, incubation 1 day
Protocol: as §2

[4] = system: Pseudomonas aeruginosa; assay: as above; format: cell-based; conditions: 0.025% (w/v) Py-C12, pH 7.0, organic load, incubation 1 day
Protocol: as §2

[5] = system: Escherichia coli; assay: as above; format: cell-based; conditions: 0.025% (w/v) Py-C12, pH 7.0, organic load, incubation 1 day
Protocol: as §2

[6] = system: Aspergillus brasiliensis; assay: as above; format: cell-based; conditions: 0.5% (w/v) Py-C12, pH 7.0, organic load, incubation 3 days
Protocol: as §2

[7] = Influence of pH on state of matter of Py-C12 at 20° C. (Example 1); format: physicochemical; set-up: key to state of matter: X: liquid; o: solid; conditions: for solubility in water / state of matter: 1% (w/v); for state of matter: 1% w/v, 20° C.
Text: 1% (w/v) 5-N-carboxamido-2-pyrrolidone-N-n-dodecyl propane-1,3-diamine (Py-C12) free base was adjusted with HCl or NaOH to pH values between 3.0 and 10.0.

[8] = Modulation of the state of matter by pH shift using CO2 (Example 8); format: physicochemical
Text: 1% (w/v) and 5% (w/v) 5-N-carboxamido-2-pyrrolidone-N-n-dodecyl propane-1,3-diamine (Py-C12) free base solutions in water were gassed with carbon dioxide to reduce the pH from 9.5 to 7. […] After degassing of the CO2-gassed solutions, Py-C12 precipitates due to the increasing pH in a time dependent manner (see FIG. 3, right panel).

[9] = system: β-galactosidase-expressing E. coli strain; assay: Wash resistance and biocidal activity of Py-C12 treated polyester fabric (Example 16); format: cell-based; conditions: treated with 5% (w/v) free base, E. coli 3 days at 37° C.
Protocol: as §1, with “5%” for “1%”

[10] = system: β-galactosidase-expressing E. coli strain; assay: Wash resistance and biocidal activity of Py-C12 treated cotton textile (Example 6); format: cell-based; conditions: treated with 1% (w/v) pH 7.0, E. coli 3 days at 37° C.
Protocol: Round sterile cotton textile samples were treated with a liquid Py-C12 solution (1% (w/v) in water; pH 7.0) followed by intensive washing steps. For controls, samples were treated with water instead of Py-C12.
For testing wash resistance in an aqueous system samples were incubated in water for 20 h at 50° C. and then washed 16 times with water at 37° C. for 5 to 10 minutes each time.
For testing wash resistance in an alcoholic/acidic system, samples were washed 8 times with 2-propanol/1 mN HCl solution and 8 times with water in total.
After all washing steps, all samples were inoculated with a β-galactosidase-expressing E. coli strain and then incubated for 3 days at 37° C.

## CCCCCCCCCCCCNCCCNC(=O)C1CCC(=O)N1 (stereo not drawn) [Py-C12, 5-N-carboxamido-2-pyrrolidone-N′-n-dodecyl propane-1,3-diamine]
[1]
  bacterial growth on treated silk fabric after washing: Blue coloured bacteria only appear in control sample
[2]
  Germ reduction factor log10: ≥5.6 log10
[3]
  Germ reduction factor log10: 4.2 log10
[4]
  Germ reduction factor log10: ≥5.6 log10
[5]
  Germ reduction factor log10: ≥5.5 log10
[6]
  Germ reduction factor log10: 4.6 log10
[7]; pH values </=7.8, room temperature
  solubility in water / state of matter: completely soluble
[7]; pH values >/=8
  solubility in water / state of matter: solid substance
[7]; pH 3.0
  state of matter: X
[7]; pH 4.0
  state of matter: X
[7]; pH 5.0
  state of matter: X
[7]; pH 6.0
  state of matter: X
[7]; pH 7.0
  state of matter: X
[7]; pH 7.8
  state of matter: X
[7]; pH 8.0
  state of matter: o
[7]; pH 9.0
  state of matter: o
[7]; pH 10.0
  state of matter: o
[8]; 1% and 5% (w/v) free base gassed with CO2, pH from 9.5 to 7, room temperature
  solubility in water: completely soluble
[8]; 1% and 5% (w/v), after degassing of CO2, increasing pH, time dependent
  state of matter after degassing: precipitates
[9]; washed 10 times with water 15 min
  bacterial growth on treated polyester fabric after washing: unstained
[9]; washed 20 times with water 15 min
  bacterial growth on treated polyester fabric after washing: unstained
[9]; washed 30 times with water 15 min
  bacterial growth on treated polyester fabric after washing: Blue coloured bacteria
[10]; alcoholic/acidic system: 8 washes 2-propanol/1 mN HCl and 8 with water
  biocidal effect of treated cotton textile after washing: completely colonized
[10]; aqueous system: water 20 h at 50° C., then 16 water washes at 37° C.
  biocidal effect of treated cotton textile after washing: maintained its biocidal effect
